IC50 data for 35 compounds are collected here from US12275729B2 (Merck Sharp & Dohme LLC, priority 2017, dated 2025).

Structures are written as SMILES.

The target of one assay is IDO1 (Homo sapiens, UniProt P14902). Briefly: IDO1 Cellular Assay in HeLa Cells Stimulated with IFNγ. The assay is classed as cell-based. The settings on record: about 48 hours, read-out: Hela IC50.
Chain of IDO1 (P14902 whole entry): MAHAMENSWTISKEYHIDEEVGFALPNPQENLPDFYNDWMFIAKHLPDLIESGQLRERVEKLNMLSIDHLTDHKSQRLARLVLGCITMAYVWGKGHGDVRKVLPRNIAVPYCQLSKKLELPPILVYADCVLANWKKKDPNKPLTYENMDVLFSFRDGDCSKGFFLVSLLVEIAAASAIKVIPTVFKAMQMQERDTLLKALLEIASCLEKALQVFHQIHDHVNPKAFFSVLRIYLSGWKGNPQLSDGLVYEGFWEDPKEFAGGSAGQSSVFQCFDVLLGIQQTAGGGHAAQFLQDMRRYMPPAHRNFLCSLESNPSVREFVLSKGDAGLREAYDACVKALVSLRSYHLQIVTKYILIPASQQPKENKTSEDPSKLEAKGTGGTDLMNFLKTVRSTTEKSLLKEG
What is called IC50 is the concentration that inhibits the measured activity by half. Take `CC(C)CC(=O)N1CCCc2cc(CNC(=O)c3ccc(Cl)c(Cl)c3)ccc21` [Example 8, 3,4-dichloro-N-{[1-(3-methylbutanoyl)-1,2,3,4-tetrahydroquinolin-6-yl]methyl}benzamide]: the IC50 is 276 nM.

Take `CC(C(=O)Nc1ccc(F)cc1)c1ccc2c(n1)CCCN2C(=O)[C@@H]1CCCO1` (single isomer, unassigned) [Example 163]: the half-maximal inhibitory concentration (IC50) turned out to be 21.8 nM. On to `CC(C)CC(=O)N1CCCc2cc(CNC(=O)c3cccc(Cl)c3)ccc21` [Example 2, 3-chloro-N-{[1-(3-methylbutanoyl)-1,2,3,4-tetrahydroquinolin-6-yl]methyl}benzamide], for which the IC50 was 103 nM. Still for that read-out and setting: next, `Cc1ccnc(C(=O)N2CCCc3nc(C4(C(=O)Nc5ccc(F)cc5)COC4)ccc32)n1` [Example 400, N-(4-fluorophenyl)-3-(5-(4-methylpyrimidine-2-carbonyl)-5,6,7,8-tetrahydro-1,5-naphthyridin-2-yl)oxetane-3-carboxamide]: 1.91 nM; `CC(NC(=O)c1ccc(F)cc1)c1ccc2c(n1)C(F)(F)CCN2C(=O)C1CC1` (single isomer, unassigned) [Example 194, N-(1-(5-(cyclopropanecarbonyl)-8,8-difluoro-5,6,7,8-tetrahydro-1,5-naphthyridin-2-yl)ethyl)-4-fluorobenzamide]: 2650 nM. Consider `CC(NC(=O)c1ccc(F)cc1)c1ccc2c(n1)C(F)(F)CCN2C(=O)C1CC1` (single isomer, unassigned) [Example 195, N-(1-(5-(cyclopropanecarbonyl)-8,8-difluoro-5,6,7,8-tetrahydro-1,5-naphthyridin-2-yl)ethyl)-4-fluorobenzamide], for which the half-maximal inhibitory concentration (IC50) came out at 9540 nM. On the same count and under the same terms, next, `CS(=O)(=O)N1CCCc2cc(C3(C(=O)Nc4ccc(F)cn4)CCC3)ccc21` [Example 123, N-(5-fluoropyridin-2-yl)-1-[1-(methylsulfonyl)-1,2,3,4-tetrahydroquinolin-6-yl]cyclobutane-1-carboxamide]: 34.1 nM.

`CCN(C(=O)N1CCc2cc(C3(C(=O)Nc4ccc(Cl)cc4)CCC3)ccc21)C(C)C` [Example 274, 5-{1-[(4-chlorophenyl)carbamoyl]cyclobutyl}-N-ethyl-N-(propan-2-yl)-2,3-dihydro-1H-indole-1-carboxamide]: the IC50 came out at 3.3 nM.

As for `CC(NC(=O)c1ccc(F)cc1)c1ccc2c(n1)CCCN2C(=O)c1ncccc1F` (centres unmarked) [Example 283, 2-(1-(4-fluorobenzamido)ethyl)-5-(3-fluoropicolinoyl)-5,6,7,8-tetrahydro-1,5-naphthyridin-1-ium 2,2,2-trifluoroacetate], the IC50 was found to be 2.2 nM.

In the case of `CC(NC(=O)c1ccc(F)cc1)c1ccc2c(n1)C(F)CCN2C(=O)C1CC1` (single isomer, unassigned) [Example 202, N-(1-(5-(cyclopropanecarbonyl)-8-fluoro-5,6,7,8-tetrahydro-1,5-naphthyridin-2-yl)ethyl)-4-fluorobenzamide], the IC50 was found to be 396 nM.

Regarding `Cn1ccc(C(=O)NCc2ccc3c(c2)CCCN3C(=O)c2cccc(Cl)c2)n1` [Example 25, N-{[1-(3-chlorobenzene-1-carbonyl)-1,2,3,4-tetrahydroquinolin-6-yl]methyl}-1-methyl-1H-pyrazole-3-carboxamide], the IC50 is 136 nM. On the same count and under the same terms, next, `CC(C)C(C(=O)Nc1ccc(F)cc1)c1ccc2c(n1)CCCN2C(=O)C1CC1` (centres unmarked) [Example 263, 2-(5-(cyclopropanecarbonyl)-5,6,7,8-tetrahydro-1,5-naphthyridin-2-yl)-N-(4-fluorophenyl)-3-methylbutanamide]: 34.9 nM; `CC(C)CC(=O)N1CCCc2cc(CNC(=O)c3ccc(I)cc3)ccc21` [Example 12, 4-iodo-N-{[1-(3-methylbutanoyl)-1,2,3,4-tetrahydroquinolin-6-yl]methyl}benzamide]: 21.1 nM. In the case of `CC(NC(=O)c1ccc(F)cc1)c1ccc2c(n1)CCCN2C(=O)c1ccn(C2CC2)n1` (stereo in doubt) [Example 144, N-{(1R)-1-[5-(1-cyclopropyl-1H-pyrazole-3-carbonyl)-5,6,7,8-tetrahydro-1,5-naphthyridin-2-yl]ethyl}-4-fluorobenzamide], the half-maximal inhibitory concentration (IC50) is 18.1 nM. Still for that read-out and setting: next, `COC(=O)N1CCCc2nc(C3(C(=O)Nc4ccc(F)cc4)CC3)ccc21` [Example 222, methyl 6-{1-[(4-fluorophenyl)carbamoyl]cyclopropyl}-3,4-dihydro-1,5-naphthyridine-1(2H)-carboxylate]: 21.8 nM; `O=C(NCc1ccc2c(c1)CCCN2C(=O)c1cccc(Cl)c1)c1cccc(Cl)c1` [Example 16, 3-chloro-N-((1-(3-chlorobenzoyl)-1,2,3,4-tetrahydroquinolin-6-yl)methyl)benzamide]: 118 nM. The same measure, in the same setting: next, `O=C(Nc1ccc(F)cn1)C1(c2ccc3c(c2)CCCN3S(=O)(=O)C2CC2)CCC1` [Example 124, 1-[1-(cyclopropylsulfonyl)-1,2,3,4-tetrahydroquinolin-6-yl]-N-(5-fluoropyridin-2-yl)cyclobutane-1-carboxamide]: 26.2 nM. Same read-out and setting: next, `CC(NC(=O)c1ccc(F)cc1)c1ccc2c(n1)CCCN2C(=O)C1CCOCC1` (stereo in doubt) [Example 146, 4-fluoro-N-{(1R)-1-[5-(oxane-4-carbonyl)-5,6,7,8-tetrahydro-1,5-naphthyridin-2-yl]ethyl}benzamide]: 35.5 nM; `CC(NC(=O)c1ccc(F)cc1)c1ccc2c(n1)C(O)CCN2C(=O)C1CC1` (single isomer, unassigned) [Example 197, N-(1-(5-(cyclopropanecarbonyl)-8-hydroxy-5,6,7,8-tetrahydro-1,5-naphthyridin-2-yl)ethyl)-4-fluorobenzamide]: 290 nM. For the compound `CCc1nc(C(=O)NCc2ccc3c(c2)CCCN3C(=O)c2cccc(Cl)c2)co1` [Example 23, N-{[1-(3-chlorobenzene-1-carbonyl)-1,2,3,4-tetrahydroquinolin-6-yl]methyl}-2-ethyl-1,3-oxazole-4-carboxamide], the IC50 is 77.6 nM. The same measure, in the same setting: next, `CC(NC(=O)c1ccc(F)cc1)c1ccc2c(c1)CCCN2C(CO)c1cccc(Cl)c1` (single isomer, unassigned) [Example 94]: 236 nM. Take `COCC(=O)N1CCCc2cc(C(C)C(=O)Nc3ccc(F)cc3)ccc21` (centres unmarked) [Example 59, N-(4-fluorophenyl)-2-[1-(methoxyacetyl)-1,2,3,4-tetrahydroquinolin-6-yl]propanamide]: the IC50 was found to be 20 nM.

Consider `O=C(Nc1ccc(F)cc1)C(c1ccc2c(n1)CCCN2C(=O)C1CC1)C1CC1` (single isomer, unassigned) [Example 262, 2-(5-(cyclopropanecarbonyl)-5,6,7,8-tetrahydro-1,5-naphthyridin-2-yl)-2-cyclopropyl-N-(4-fluorophenyl)acetamide], for which the IC50 was 11 nM.

With `O=C(NC1(c2ccc3c(n2)CCCN3C(=O)[C@H]2CCCO2)CC1)c1ccc(F)cc1` [Example 176, 4-fluoro-N-(1-{5-[(2R)-oxolane-2-carbonyl]-5,6,7,8-tetrahydro-1,5-naphthyridin-2-yl}cyclopropyl)benzamide], the IC50 is 9.7 nM. Consider `COC(C(=O)Nc1ccc(F)cn1)c1ccc2c(c1)CCCN2C(=O)C1CC1` (single isomer, unassigned) [Example 157, 2-(1-(cyclopropanecarbonyl)-1,2,3,4-tetrahydroquinolin-6-yl)-N-(5-fluoropyridin-2-yl)-2-methoxyacetamide], for which the concentration for half-maximal inhibition (IC50) amounted to 154 nM.

The assay is the same for the next values; noted with them: read-out: Hela IC50.
Turning to `CC(NC(=O)c1ccc(F)cc1)c1ccc2c(n1)CCCN2C(=O)OCCC1CC1(F)F` (centres unmarked) [Example 319, 2-(2,2-difluorocyclopropyl)ethyl 6-(1-(4-fluorobenzamido)ethyl)-3,4-dihydro-1,5-naphthyridine-1(2H)-carboxylate], the IC50 amounted to 9.87 nM. Same read-out and setting: next, `CC(C(=O)Nc1ccc(F)cc1)c1ccc2c(n1)CCCN2c1ccnc(C2CC2)n1` (centres unmarked) [Example 367, 2-(5-(2-cyclopropylpyrimidin-4-yl)-5,6,7,8-tetrahydro-1,5-naphthyridin-2-yl)-N-(4-fluorophenyl)propanamide]: 1.81 nM; `CC(NC(=O)c1ccc(F)cc1)c1ccc2c(n1)CCCN2c1ccc(F)cn1` (centres unmarked) [Example 376, 4-fluoro-N-(1-(5-(5-fluoropyridin-2-yl)-5,6,7,8-tetrahydro-1,5-naphthyridin-2-yl)ethyl)benzamide]: 99.6 nM.

For `CC(NC(=O)c1ccc(F)cc1)c1ccc2c(n1)CCCN2C(=O)OCC1CCO1` (centres unmarked) [Example 313, oxetan-2-ylmethyl 6-(1-(4-fluorobenzamido)ethyl)-3,4-dihydro-1,5-naphthyridine-1(2H)-carboxylate], the IC50 came to 45.3 nM. In the case of `Cc1nccc(N2CCCc3nc(C(C)C(=O)Nc4ccc(F)cc4)ccc32)n1` (centres unmarked) [Example 373, N-(4-fluorophenyl)-2-(5-(2-methylpyrimidin-4-yl)-5,6,7,8-tetrahydro-1,5-naphthyridin-2-yl)propanamide], the IC50 amounted to 6.38 nM. With `COc1ccc(C(=O)NC(C)c2ccc3c(n2)CCCN3C(=O)OC2CC2)cc1` (centres unmarked) [Example 338, cyclopropyl 6-(1-(4-methoxybenzamido)ethyl)-3,4-dihydro-1,5-naphthyridine-1(2H)-carboxylate], the IC50 came to 161 nM. Turning to `COc1cccc(N2CCCc3nc(C(C)NC(=O)c4ccc(Cl)cc4)ccc32)n1` (centres unmarked) [Example 352, 4-chloro-N-(1-(5-(6-methoxypyridin-2-yl)-5,6,7,8-tetrahydro-1,5-naphthyridin-2-yl)ethyl)benzamide], the half-maximal inhibitory concentration (IC50) was determined as 4.01 nM. Regarding `CC(NC(=O)c1ccc(F)cc1)c1ccc2c(n1)CCCN2C(=O)OCCc1ccc(Cl)c(Cl)c1` (centres unmarked) [Example 326, 3,4-dichlorophenethyl 6-(1-(4-fluorobenzamido)ethyl)-3,4-dihydro-1,5-naphthyridine-1(2H)-carboxylate], the IC50 was found to be 24.3 nM. As to `COc1cccc(C(=O)NC(C)c2ccc3c(n2)CCCN3C(=O)OC2CC2)c1` (centres unmarked) [Example 336, cyclopropyl 6-(1-(3-methoxybenzamido)ethyl)-3,4-dihydro-1,5-naphthyridine-1(2H)-carboxylate], the IC50 is 973 nM.

Turning to `CC(NC(=O)c1ccc(F)cc1)c1ccc2c(n1)CCCN2C(=O)OCCN(C)C` (centres unmarked) [Example 329, 2-(dimethylamino)ethyl 6-(1-(4-fluorobenzamido)ethyl)-3,4-dihydro-1,5-naphthyridine-1(2H)-carboxylate], the IC50 turned out to be 2200 nM.
